Test [1] in a line: The compound was tested for binding affinity against porcine sarcoplasmic reticulum(SR) membrane.
The nature of test [2]: The compound was tested for binding affinity in a buffer containing 500 uM-3 mM beta,gamma-methyleneadenosine 5'-triphosphate(AMP-PCP) in porcine sarcoplasmic reticulum.
Test [3] can be described thus: The compound was tested for binding affinity in the absence of beta, gamma- methyleneadenosine 5'-triphosphate(AMP-PCP) in porcine sarcoplasmic reticulum.
Test [4] in a line: Binding affinity against porcine sarcoplasmic reticulum.
The nature of test [5]: The compound was tested for binding affinity against porcine sarcoplasmic reticulum(SR) membrane in the absence or presence of atropine.
A short description of test [6]: The compound was tested for binding affinity against porcine sarcoplasmic reticulum(SR) membrane in the absence or presence of dantrolene from porcine sarcoplasmic reticulum.
The nature of test [7]: The compound was tested for binding affinity against porcine sarcoplasmic reticulum.
Test [8] in a line: The compound was tested for binding affinity against porcine sarcoplasmic reticulum(SR) membrane in the absence or presence of azumolene.

Molecules are shown by their SMILES.

`[3H]/C(=N\N1CC(=O)[N-]C1=O)c1ccc(-c2ccc([N+](=O)[O-])cc2)o1.[Na+]` showed a Ki in test [1] of 1500 nM. In addition, the Kd in test [2] amounted to 210 nM; in test [3], 275 nM.

For `O=C1CN(/N=C/c2ccc(-c3ccc([N+](=O)[O-])cc3)o2)C(=O)N1` [DANTROLENE SODIUM], the Kd in test [4] worked out at 300 nM.

With `[3H]/C(=N\N1CC(=O)[N-]C1=O)c1ccc(-c2ccc(N=[N+]=[N-])cc2)o1.[Na+]` [[3H]-AZIDODANTROLINE], the Ki in test [5] stood at 100000 nM; in test [6] it was 20000 nM; in test [7], 175 nM; in test [8] it was 100000 nM.

The Ki is the dissociation constant of the complex between target and ligand, obtained from inhibition or displacement. For orientation: Kd means the equilibrium constant for the complex coming apart.

(Values after ChEMBL document CHEMBL1132159, “[3H]Azidodantrolene: synthesis and use in identification of a putative skeletal muscle dantrolene binding site in sarcoplasmic reticulum” (J Med Chem, 1999).)
